Results: US8883841B2, “Oncogenic ras-specific cytotoxic compound and methods of use thereof” (The Board of Regents of the University of Texas System, priority 2005, dated 2014)
Like-named read-outs stand apart in the source and are kept apart here.

Key:
[1] = tested on: DU-145; experiment: NCI in-vitro testing, DU-145 (Prostate Cancer); settings: for GI50 / CC50: Homo sapiens; for CC50: DU-145, read-out: LC50
[2] = tested on: MALME-3M; experiment: NCI in-vitro testing, MALME-3M (Melanoma); settings: for GI50 / CC50: Homo sapiens, Malme-3M; for CC50: read-out: LC50; for TGI / Percent Growth: MALME-3M
[3] = tested on: SK-MEL-2; experiment: NCI in-vitro testing, SK-MEL-2 (Melanoma); settings: for GI50 / CC50: Homo sapiens; for CC50: SK-MEL-2, read-out: LC50
[4] = tested on: SF-295; experiment: NCI in-vitro testing, SF-295 (CNS Cancer); settings: for GI50 / CC50: Homo sapiens; for CC50: SF-295, read-out: LC50
[5] = tested on: EKVX; experiment: NCI in-vitro testing, EKVX (Non-Small Cell Lung Cancer); settings: for GI50 / CC50: Homo sapiens; for CC50: read-out: LC50
[6] = tested on: SK-OV-3; experiment: NCI in-vitro testing, SK-OV-3 (Ovarian Cancer); settings: for GI50 / CC50: Homo sapiens; for CC50: SK-OV-3, read-out: LC50
[7] = tested on: SNB-75; experiment: NCI in-vitro testing, SNB-75 (CNS Cancer); settings: for GI50 / CC50: Homo sapiens; for CC50: SNB-75, read-out: LC50
[8] = tested on: OVCAR-5; experiment: NCI in-vitro testing, OVCAR-5 (Ovarian Cancer); settings: for GI50 / CC50: Homo sapiens; for CC50: OVCAR-5, read-out: LC50
[9] = tested on: H322 cells; experiment: Cell viability, H322 lung cancer cells; format: cell-based, human; settings: Homo sapiens, NCI-H322; H322, Lung; read-out: IC50 (−LogM) (converted)
[10] = DU-145, Log10 Concentration −4.0 Molar
[11] = DU-145, Log10 Concentration −5.0 Molar
[12] = DU-145, Log10 Concentration −6.0 Molar
[13] = DU-145, Log10 Concentration −7.0 Molar
[14] = DU-145, Log10 Concentration −8.0 Molar
[15] = SK-MEL-2, Log10 Concentration −4.0 Molar
[16] = SK-MEL-2, Log10 Concentration −5.0 Molar
[17] = SK-MEL-2, Log10 Concentration −6.0 Molar
[18] = SK-MEL-2, Log10 Concentration −7.0 Molar
[19] = SK-MEL-2, Log10 Concentration −8.0 Molar
[20] = SF-295, Log10 Concentration −4.0 Molar
[21] = SF-295, Log10 Concentration −5.0 Molar
[22] = SF-295, Log10 Concentration −6.0 Molar
[23] = SF-295, Log10 Concentration −7.0 Molar
[24] = SF-295, Log10 Concentration −8.0 Molar
[25] = SK-OV-3, Log10 Concentration −4.0 Molar
[26] = SK-OV-3, Log10 Concentration −5.0 Molar
[27] = SK-OV-3, Log10 Concentration −6.0 Molar
[28] = SK-OV-3, Log10 Concentration −7.0 Molar
[29] = SK-OV-3, Log10 Concentration −8.0 Molar
[30] = SNB-75, Log10 Concentration −4.0 Molar
[31] = SNB-75, Log10 Concentration −5.0 Molar
[32] = SNB-75, Log10 Concentration −6.0 Molar
[33] = SNB-75, Log10 Concentration −7.0 Molar
[34] = SNB-75, Log10 Concentration −8.0 Molar
[35] = OVCAR-5, Log10 Concentration −4.0 Molar
[36] = OVCAR-5, Log10 Concentration −5.0 Molar
[37] = OVCAR-5, Log10 Concentration −6.0 Molar
[38] = OVCAR-5, Log10 Concentration −7.0 Molar
[39] = OVCAR-5, Log10 Concentration −8.0 Molar
[40] = read-out: Log10 GI50 (converted)

O=Cc1cn(Cc2cccc(Cl)c2)c2ccccc12 [Oncrasin K027, 1-(3-chlorobenzyl)-1H-indole-3-carbaldehyde]
TGI ([1]; DU-145): 2.78E−5 Molar | Percent Growth [1, 10]: −53% | Percent Growth [1, 11]: 42% | Percent Growth [1, 12]: 98% | Percent Growth [1, 13]: 108% | Percent Growth [1, 14]: 108% | GI50 ([1]; DU-145): 7.25 µM | CC50 [1]: 93.3 µM | GI50 [2]: 5.17 µM | CC50 [2]: 82 µM | TGI [2]: 2.37E−5 Molar | Percent Growth ([2]; Log10 Concentration −4.0 Molar): −58% | Percent Growth ([2]; Log10 Concentration −5.0 Molar): 35% | Percent Growth ([2]; Log10 Concentration −6.0 Molar): 88% | Percent Growth ([2]; Log10 Concentration −7.0 Molar): 114% | Percent Growth ([2]; Log10 Concentration −8.0 Molar): 105% | GI50 ([3]; SK-MEL-2): 15.8 µM | CC50 [3]: 48.2 µM | TGI ([3]; SK-MEL-2): 5.94E−8 Molar | Percent Growth [3, 15]: −64% | Percent Growth [3, 16]: −20% | Percent Growth [3, 17]: 67% | Percent Growth [3, 18]: 84% | Percent Growth [3, 19]: 98% | GI50 ([4]; SF-295): 1.43 µM | CC50 [4]: > 100 µM | TGI ([4]; SF-295): 3.52E−5 Molar | Percent Growth [4, 20]: −15% | Percent Growth [4, 21]: 18% | Percent Growth [4, 22]: 56% | Percent Growth [4, 23]: 80% | Percent Growth [4, 24]: 104% | TGI [5]: 6.47E−5 Molar | GI50 [5]: 21 µM | CC50 [5]: > 100 µM | Percent Growth ([5]; Log10 Concentration −4.0 Molar): −22% | Percent Growth ([5]; Log10 Concentration −5.0 Molar): 94% | Percent Growth ([5]; Log10 Concentration −6.0 Molar): 107% | Percent Growth ([5]; Log10 Concentration −7.0 Molar): 105% | Percent Growth ([5]; Log10 Concentration −8.0 Molar): 103% | GI50 ([6]; SK-OV-3): 1.82 µM | CC50 [6]: > 100 µM | TGI ([6]; SK-OV-3): 2.95E−5 Molar | Percent Growth [6, 25]: −18% | Percent Growth [6, 26]: 16% | Percent Growth [6, 27]: 62% | Percent Growth [6, 28]: 85% | Percent Growth [6, 29]: 96% | GI50 ([7]; SNB-75): 7.64 µM | CC50 [7]: 62.8 µM | TGI ([7]; SNB-75): 2.31E−5 Molar | Percent Growth [7, 30]: −73% | Percent Growth [7, 31]: 42% | Percent Growth [7, 32]: 112% | Percent Growth [7, 33]: 119% | Percent Growth [7, 34]: 118% | GI50 ([8]; OVCAR-5): < 0.01 µM | CC50 [8]: > 100 µM | TGI ([8]; OVCAR-5): 3.72E−7 Molar | Percent Growth [8, 35]: −50% | Percent Growth [8, 36]: −23% | Percent Growth [8, 37]: −7% | Percent Growth [8, 38]: 10% | Percent Growth [8, 39]: 43%

OCc1cn(Cc2ccc(Cl)cc2)c2ccccc12 [Oncrasin K060, 1H-Indole-3-methanol, 1-[(4-chlorophenyl)methyl]-]
TGI ([1]; DU-145): 2.78E−5 Molar | Percent Growth [1, 10]: −53% | Percent Growth [1, 11]: 42% | Percent Growth [1, 12]: 96% | Percent Growth [1, 13]: 105% | Percent Growth [1, 14]: 108% | GI50 ([1]; DU-145): 7.25 µM | CC50 [1]: 93.3 µM | GI50 ([1]; DU-145, read-out: Log10 GI50 (converted)): 7.24 µM | IC50 [9]: 31.6 µM | GI50 [2]: 51.7 µM | CC50 [2]: 82 µM | GI50 [2, 40]: 5.13 µM | TGI [2]: 2.37E−5 Molar | Percent Growth ([2]; Log10 Concentration −4.0 Molar): −58% | Percent Growth ([2]; Log10 Concentration −5.0 Molar): 35% | Percent Growth ([2]; Log10 Concentration −6.0 Molar): 88% | Percent Growth ([2]; Log10 Concentration −7.0 Molar): 114% | Percent Growth ([2]; Log10 Concentration −8.0 Molar): 105% | GI50 ([3]; SK-MEL-2): 1.58 µM | CC50 [3]: 48.2 µM | GI50 ([3]; SK-MEL-2, read-out: Log10 GI50 (converted)): 1.58 µM | TGI ([3]; SK-MEL-2): 5.94E−6 Molar | Percent Growth [3, 15]: −64% | Percent Growth [3, 16]: −20% | Percent Growth [3, 17]: 67% | Percent Growth [3, 18]: 84% | Percent Growth [3, 19]: 98% | GI50 ([4]; SF-295): 14.3 µM | CC50 [4]: > 100 µM | GI50 ([4]; SF-295, read-out: Log10 GI50 (converted)): 1.41 µM | TGI ([4]; SF-295): 3.52E−5 Molar | Percent Growth [4, 20]: −15% | Percent Growth [4, 21]: 18% | Percent Growth [4, 22]: 56% | Percent Growth [4, 23]: 80% | Percent Growth [4, 24]: 104% | TGI [5]: 6.47E−5 Molar | GI50 [5]: 24 µM | CC50 [5]: > 100 µM | GI50 [5, 40]: 24 µM | Percent Growth ([5]; Log10 Concentration −4.0 Molar): −22% | Percent Growth ([5]; Log10 Concentration −5.0 Molar): 94% | Percent Growth ([5]; Log10 Concentration −6.0 Molar): 107% | Percent Growth ([5]; Log10 Concentration −7.0 Molar): 105% | Percent Growth ([5]; Log10 Concentration −8.0 Molar): 103% | GI50 ([6]; SK-OV-3): 1.82 µM | CC50 [6]: > 100 µM | GI50 ([6]; SK-OV-3, read-out: Log10 GI50 (converted)): 1.82 µM | TGI ([6]; SK-OV-3): 2.96E−5 Molar | Percent Growth [6, 25]: −16% | Percent Growth [6, 26]: 16% | Percent Growth [6, 27]: 52% | Percent Growth [6, 28]: 85% | Percent Growth [6, 29]: 96% | GI50 ([7]; SNB-75): 76.4 µM | CC50 [7]: 62.8 µM | GI50 ([7]; SNB-75, read-out: Log10 GI50 (converted)): 7.59 µM | TGI ([7]; SNB-75): 2.31E−5 Molar | Percent Growth [7, 30]: −73% | Percent Growth [7, 31]: 42% | Percent Growth [7, 32]: 112% | Percent Growth [7, 33]: 119% | Percent Growth [7, 34]: 118% | GI50 ([8]; OVCAR-5): < 0.01 µM | CC50 [8]: > 100 µM | GI50 ([8]; OVCAR-5, read-out: Log10 GI50 (converted)): < 0.01 µM | TGI ([8]; OVCAR-5): 3.72E−7 Molar | Percent Growth [8, 35]: −50% | Percent Growth [8, 36]: −23% | Percent Growth [8, 37]: −7% | Percent Growth [8, 38]: 10% | Percent Growth [8, 39]: 43%
